{"source": "patent EP4722231A1", "about": "“BIOSYNTHESIS METHOD FOR BROAD-SPECTRUM ANTIVIRAL POLYPEPTIDE” (Shanxi Jinbo Bio-Pharmaceutical Co., Ltd., priority 2023, dated 2025)", "test_system": "SARS-CoV-2 (D614G) pseudovirus", "conditions": "24 h", "data": [{"smiles": "CC[C@H](C)[C@H](NC(=O)[C@H](C)NC(=O)[C@H](CCC(=O)O)NC(=O)[C@H](CCC(=O)O)NC(=O)[C@H](CC(C)C)NC(=O)[C@H](CCCCN)NC(=O)[C@H](CCCCN)NC(=O)[C@H](CCSC)NC(=O)[C@H](CCC(=O)O)NC(=O)[C@H](Cc1ccc(O)cc1)NC(=O)[C@H](CCC(=O)O)NC(=O)[C@H](CC(C)C)NC(=O)[C@H](CC(=O)O)NC(=O)[C@H](CC(C)C)NC(=O)[C@H](Cc1ccccc1)NC(=O)[C@@H](NC(=O)[C@@H](NC(=O)[C@H](CC(N)=O)NC(=O)[C@@H](NC(=O)[C@H](CCC(N)=O)NC(=O)[C@H](CC(=O)O)NC(=O)[C@H](CC(C)C)NC(=O)[C@H](CO)NC(C)=O)[C@@H](C)CC)C(C)C)[C@@H](C)O)C(=O)N[C@@H](CCCCN)C(=O)N[C@@H](CCCCN)C(=O)N[C@@H](CC(C)C)C(=O)N[C@@H](CCC(=O)O)C(=O)N[C@@H](CCC(=O)O)C(=O)N[C@@H](CO)C(=O)N[C@@H](Cc1ccc(O)cc1)C(=O)N[C@H](C(=O)N[C@@H](CC(=O)O)C(=O)N[C@@H](CC(C)C)C(=O)N[C@@H](CCCCN)C(=O)N[C@@H](CCC(=O)O)C(=O)N[C@@H](CC(C)C)C(N)=O)[C@@H](C)CC", "note": "[EK1]", "values": [{"measurement": "IC50", "value": 0.308, "unit": "µM"}]}]}
